{"source": "paper PMC11224940", "about": "“矩阵热转移技术鉴定有机酸类代谢物的结合蛋白质” (Chinese Journal of Chromatography, 2024)", "target": "T1, FH (富马酸脱氢酶) (Homo sapiens, UniProt P07954)", "T1 construct": "endogenous protein in desalted HeLa cell lysate, native, no tag", "T1 sequence (P07954 45-510)": "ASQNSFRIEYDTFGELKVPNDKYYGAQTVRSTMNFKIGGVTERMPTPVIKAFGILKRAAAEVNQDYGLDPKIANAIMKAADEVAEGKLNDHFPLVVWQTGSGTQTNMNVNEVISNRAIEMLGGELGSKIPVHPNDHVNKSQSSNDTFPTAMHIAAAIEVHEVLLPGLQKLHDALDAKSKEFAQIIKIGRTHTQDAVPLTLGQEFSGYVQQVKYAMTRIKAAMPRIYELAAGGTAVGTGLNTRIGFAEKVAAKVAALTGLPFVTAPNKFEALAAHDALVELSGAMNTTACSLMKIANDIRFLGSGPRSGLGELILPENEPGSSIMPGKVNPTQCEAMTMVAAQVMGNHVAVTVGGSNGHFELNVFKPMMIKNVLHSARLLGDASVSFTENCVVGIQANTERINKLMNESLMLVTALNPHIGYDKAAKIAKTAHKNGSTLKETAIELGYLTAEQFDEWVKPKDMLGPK", "assay": "matrix thermal shift assay (mTSA), DIA proteomics, dose-response fit", "type": "biochemical", "conditions": "desalted HeLa lysate in PBS, endogenous metabolites removed, 50 min room temperature, then 52 ℃ 3 min; 0.004-2 mmol/L ligand; thermal stabilisation; only four ligand concentrations; read-out: 亲和力 (EC50)", "data": [{"smiles": "O=C(O)/C=C/C(=O)O", "note": "[富马酸]", "values": [{"measurement": "EC50", "result": 548, "unit": "µM"}]}]}
